Drawing on US20160002204A1 (Board of Regents, The University of Texas System, priority 2014, published 2016), this text covers IC50 and EC50 for 18 compounds.

Molecules are shown by their SMILES. pEC50, pIC50: −log10 of the molar value.

The target in test [1] is T1, GLS1 (purified recombinant human GAC) (Homo sapiens, UniProt O94925).
T1 sequence (O94925 55-598 isoform O94925-3 limits assumed): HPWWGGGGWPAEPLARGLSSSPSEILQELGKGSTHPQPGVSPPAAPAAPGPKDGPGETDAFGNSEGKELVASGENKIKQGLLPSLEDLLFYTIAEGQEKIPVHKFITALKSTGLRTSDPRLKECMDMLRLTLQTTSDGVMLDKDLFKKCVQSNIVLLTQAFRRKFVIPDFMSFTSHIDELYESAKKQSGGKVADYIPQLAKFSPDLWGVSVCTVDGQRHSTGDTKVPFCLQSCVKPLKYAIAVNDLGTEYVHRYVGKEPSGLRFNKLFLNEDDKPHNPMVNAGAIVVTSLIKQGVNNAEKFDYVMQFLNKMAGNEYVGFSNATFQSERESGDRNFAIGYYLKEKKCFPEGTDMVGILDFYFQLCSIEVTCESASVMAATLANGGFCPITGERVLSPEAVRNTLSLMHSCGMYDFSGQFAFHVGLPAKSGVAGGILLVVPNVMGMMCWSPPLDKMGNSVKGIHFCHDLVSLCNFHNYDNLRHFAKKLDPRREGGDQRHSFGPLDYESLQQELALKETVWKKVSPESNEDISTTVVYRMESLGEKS
The test can be described thus: GLS1 enzymatic activity assay (dual-coupled, Amplex UltraRed/resorufin). It counts as biochemical. In outline:
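GAC activity measured by coupling glutamate to glutamate oxidase and HRP, generating resorufin from Amplex UltraRed. Enzyme (2 nM) preincubated with 50 mM potassium phosphate 10 min at room temperature, then inhibitor 10 min; 1 mM glutamine substrate, 1% DMSO. Fluorescence 530/590 nm, kinetic or 20-min endpoint; IC50 from four-parameter logistic fit.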

Test [2] concerns A549 cells. Put plainly: A549 proliferation (viability) assay, Cell Titer Fluor, 72 hours. The test is classed as cell-based. Conditions: Homo sapiens. The essentials:
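Fluorescence read-out (Cell Titer Fluor, 30 min at 37 °C after reagent) after 72 h compound exposure of A549 cells; EC50 by four-parameter logistic curve fit. Cells: 1000/well, RPMI 1640 + 10% dialyzed FBS, 0.5% DMSO final.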

As for `O=C(Cc1ccccc1)Nc1ccn(CC(F)CCn2cc(C(=O)NCc3cccc(OC(F)(F)F)c3)nn2)c(=O)c1` (stereo not drawn) [Example 144, 1-{3-fluoro-4-[2-oxo-4-(2-phenylacetamido)-1,2-dihydropyridin-1-yl]butyl}-N-{[3-(trifluoromethoxy)phenyl]methyl}-1H-1,2,3-triazole-4-carboxamide], the pIC50 – broadly, −log10 of the IC50, conventionally taken in molar units – in test [1] was above 7.00. Moreover, the pEC50 (usually the EC50 on a negative log10 scale, so that one unit is a factor of ten) in test [2] was above 7.00.
As for `COC(=O)Nc1ccn(CCCCc2ccc(NC(=O)Cc3ccccc3)nn2)c(=O)n1` [Example 93, methyl N-(2-oxo-1-{4-[6-(2-phenylacetamido)pyridazin-3-yl]butyl}-1,2-dihydropyrimidin-4-yl)carbamate], the negative-log IC50 (pIC50) in test [1] was 6.30 to 7.00. The negative-log EC50 (pEC50) in test [2] was 5.30 to 6.30.
Turning to `O=C(CC1CCCC1)Nc1ccn(CCC(F)Cn2cc(C(=O)NCc3ccc(CF)nc3)nn2)c(=O)c1F` (stereo not drawn) [Example 388, 1-{4-[4-(2-cyclopentylacetamido)-3-fluoro-2-oxo-1,2-dihydropyridin-1-yl]-2-fluorobutyl}-N-{[6-(fluoromethyl)pyridin-3-yl]methyl}-1H-1,2,3-triazole-4-carboxamide], in test [1], the pIC50 was above 7.00. For the same compound, the pEC50 in test [2] was above 7.00.
Take `O=C(Cc1cccc(OC(F)(F)F)c1)Nc1ccn(CCCCc2nnc(C(=O)NCc3ccccn3)s2)c(=O)c1` [Example 446, 5-[4-(2-oxo-4-{2-[3-(trifluoromethoxy)phenyl]acetamido}-1,2-dihydropyridin-1-yl)butyl]-N-(pyridin-2-ylmethyl)-1,3,4-thiadiazole-2-carboxamide]: the negative logarithm of the IC50 (pIC50) in test [1] was above 7.00. The same compound had a pEC50 in test [2] of 6.30 to 7.00.
For `O=C(Cc1cccc(OC(F)(F)F)c1)Nc1ccn(CCCCc2nnc(C(=O)NCc3cccc(OC(F)(F)F)c3)s2)c(=O)c1` [Example 439, 5-[4-(2-oxo-4-{2-[3-(trifluoromethoxy)phenyl]acetamido}-1,2-dihydropyridin-1-yl)butyl]-N-{[3-(trifluoromethoxy)phenyl]methyl}-1,3,4-thiadiazole-2-carboxamide] the same measures were above 7.00 and above 7.00.
On the same counts, the results for `O=C(NCc1cccc(OC(F)(F)F)c1)c1cn(CC(F)CCn2ccc(COc3c(F)cccc3F)cc2=O)nn1` (stereo not drawn) [Example 474, 1-{4-[4-(2,6-difluorophenoxymethyl)-2-oxo-1,2-dihydropyridin-1-yl]-2-fluorobutyl}-N-{[3-(trifluoromethoxy)phenyl]methyl}-1H-1,2,3-triazole-4-carboxamide] are above 7.00 and 6.30 to 7.00.
On the same counts, the results for `O=C(Cc1ccccc1)Nc1ccc(CCCCn2ccc(NC(=O)OCc3ccccc3)nc2=O)nn1` [Example 96, benzyl N-(2-oxo-1-{4-[6-(2-phenylacetamido)pyridazin-3-yl]butyl}-1,2-dihydropyrimidin-4-yl)carbamate] are above 7.00 and 6.30 to 7.00.
`O=C(CC1CCCCC1)Nc1ccn(CCC(F)Cn2cc(C(=O)NCc3cc(C(F)(F)F)ccn3)nn2)c(=O)c1` (stereo not drawn) [Example 178, 1-{4-[4-(2-cyclohexylacetamido)-2-oxo-1,2-dihydropyridin-1-yl]-2-fluorobutyl}-N-{[4-(trifluoromethyl)pyridin-2-yl]methyl}-1H-1,2,3-triazole-4-carboxamide]: the pIC50 in test [1] is above 7.00. In test [2], this compound had a pEC50 above 7.00.
Take `O=C(NCc1cc(C(F)(F)F)ccn1)c1cn(CC(F)CCn2ccc(COc3cccc(OC(F)(F)F)c3)cc2=O)nn1` (stereo not drawn) [Example 483, 1-(2-fluoro-4-{2-oxo-4-[3-(trifluoromethoxy)phenoxymethyl]-1,2-dihydropyridin-1-yl}butyl)-N-{[4-(trifluoromethyl)pyridin-2-yl]methyl}-1H-1,2,3-triazole-4-carboxamide]: the pIC50 in test [1] is above 7.00. Besides, the pEC50 in test [2] is 6.30 to 7.00.
Regarding `O=C(Nc1ccn(CCC(F)Cn2cc(C(=O)NCc3cccc(OC(F)(F)F)c3)nn2)c(=O)n1)OC1CCC1` (stereo not drawn) [Example 385, cyclobutyl N-(1-{3-fluoro-4-[4-({[3-(trifluoromethoxy)phenyl]methyl}carbamoyl)-1H-1,2,3-triazol-1-yl]butyl}-2-oxo-1,2-dihydro-pyrimidin-4-yl)carbamate], the negative-log IC50 (pIC50) in test [1] was above 7.00. This compound also gave a pEC50 in test [2] of 6.30 to 7.00.
As to `O=C(CC1CCN(CC(F)F)CC1)Nc1ccn(CCC(F)Cn2cc(C(=O)NCc3cccc(OC(F)(F)F)c3)nn2)c(=O)c1` (stereo not drawn) [Example 242, 1-[4-(4-{2-[1-(2,2-difluoroethyl)piperidin-4-yl]acetamido}-2-oxo-1,2-dihydropyridin-1-yl)-2-fluorobutyl]-N-{[3-(trifluoromethoxy)phenyl]methyl}-1H-1,2,3-triazole-4-carboxamide], in test [1], the pIC50 was above 7.00. For the same compound, the negative-log EC50 (pEC50) in test [2] was 6.30 to 7.00.
For `O=C(Cc1ccccc1)Nc1nnc(CCCCn2cc3cc(Cc4ccccc4)[nH]c3nc2=O)s1` [Example 29, N-(5-(4-(6-benzyl-2-oxo-2,7-dihydro-3H-pyrrolo[2,3-d]pyrimidin-3-yl)butyl)-1,3,4-thiadiazol-2-yl)-7-phenylacetamide] the same measures were above 7.00 and below 5.30.
Turning to `O=C(Nc1ccn(CCCCc2nnc(C(=O)NCc3cccc(OC(F)(F)F)c3)s2)c(=O)n1)OCc1ccccc1` [Example 28, Benzyl 2-oxo-1-(4-(5-(3-(trifluoromethoxy)benzylcarbamoyl)-1,3,4-thiadiazol-2-yl)butyl)-1,2-dihydropyrimidin-4-ylcarbamate], the negative logarithm of the IC50 (pIC50) in test [1] was above 7.00. In addition, the pEC50 in test [2] was 6.30 to 7.00.
For `O=C(Cc1ccccc1)Nc1ccn(CCCCc2nnc(NC(=O)[C@@H](O)c3ccccc3)s2)c(=O)n1` [Example 17, (S)-2-hydroxy-N-(5-(4-(2-oxo-4-(2-phenylacetamido)pyrimidin-1(2H)-yl)butyl)-1,3,4-thiadiazol-2-yl)-2-phenylacetamide] the same measures were above 7.00 and below 5.30.
For `O=C(Nc1ccn(CCC(F)Cn2cc(C(=O)NCc3cccc(OC(F)(F)F)c3)nn2)c(=O)c1F)OC1CCCCC1` (stereo not drawn) [Example 346, cyclohexyl N-(3-fluoro-1-{3-fluoro-4-[4-({[3-(trifluoro-methoxy)phenyl]methyl}carbamoyl)-1H-1,2,3-triazol-1-yl]butyl}-2-oxo-1,2-dihydropyridin-4-yl)carbamate] the same measures were above 7.00 and above 7.00.
On to `CC(=O)Nc1nnc(CCCCn2ccc(NC(=O)CC3CCCC3)c(F)c2=O)s1` [Example 505, 2-cyclopentyl-N-{1-[4-(5-acetamido-1,3,4-thiadiazol-2-yl)butyl]-3-fluoro-2-oxo-1,2-dihydropyridin-4-yl}acetamide], for which the pIC50 in test [1] was above 7.00. In test [2], this compound showed a negative logarithm of the EC50 (pEC50) of 5.30 to 6.30.
For `O=C(CC1CCCCO1)Nc1ccn(CCC(F)Cn2cc(C(=O)NCc3cc(Cl)ccc3F)nn2)c(=O)c1` (stereo not drawn) [Example 215, N-[(5-chloro-2-fluorophenyl)methyl]-1-(2-fluoro-4-{4-[2-(oxan-2-yl)acetamido]-2-oxo-1,2-dihydropyridin-1-yl}butyl)-1H-1,2,3-triazole-4-carboxamide] the same measures were above 7.00 and 6.30 to 7.00.
On the same counts, the results for `CC1CN(CC(=O)Nc2ccn(CCC(F)Cn3cc(C(=O)NCc4cccc(OC(F)(F)F)c4)nn3)c(=O)c2)CCO1` (stereo not drawn) [Example 278, 1-(2-fluoro-4-{4-[2-(2-methylmorpholin-4-yl)acetamido]-2-oxo-1,2-dihydropyridin-1-yl}butyl)-N-{[3-(trifluoromethoxy)phenyl]methyl}-1H-1,2,3-triazole-4-carboxamide] are above 7.00 and 6.30 to 7.00.
